Key:
Assay type in all cases: physicochemical
[1] = Hygroscopicity test by Dynamic Moisture Sorption Gravimetry (DVS 1000); conditions: for Effects of moisture update: reversibility / retention of water uptake: DVS sorption/desorption, dependent on relative environmental humidity; for Water uptake %: 25° C.
Description: The water uptake of succinate and fumarate salts of S,S-reboxetine was investigated by submitting a sample of such salts to a hygroscopicity test by means of a DVS 1000 (SMS) according to the principle of Dynamic Moisture Sorption Gravimetry (DMSG). The apparatus is a “controlled atmosphere microbalance” where the weighed sample is exposed to programmed variations of the relative humidity (RH) at a constant and controlled temperature. The measured parameters (weight, time and RH), reported in Excel worksheets, allowed obtaining hygroscopicity curves over the tested RH range. Multiple sorption/desorption cycles between 0% and 90% RH were performed at 25° C. Progressive variations of RH were of 10%; they were operated by the software at the equilibration of the sample weight. This condition was defined at a constant rate of percent weight variation 0.005%/min (average of 5 minutes survey). The experimental results were reported in the DVS Isotherm Reports and Isotherm Plots.
The obtained results are summarized in the Table V, reporting the water uptake expressed as percent change in mass, and FIG. 4.

[2] = Thermogravimetric Analysis (TGA), volatile content
Protocol: The volatile content measured by means of Thermogravimetric Analysis (TGA) was relevant: in fact, a weight loss of about 2% was detected upon heating showing a related thermal feature. Whereas for SS-reboxetine fumarate and succinate salts a negligible […] weight loss was measured.

[3] = DSC analyses on samples recovered after DVS tests; conditions: for DSC profile after equilibration at high humidity (DVS test method): maximum relative humidity of 90% at 25° C., equilibration up to 0.005%/min or no more than 360 minutes; for Modification of solid structure after DVS test (observed by DSC): tested sample after DVS sorption/desorption
Protocol: DSC analyses were carried out with a Perkin-Elmer DSC-7 apparatus. Aluminium DSC pans were loaded with about of 2 mg of sample. The temperature range of analysis was between 30° and 210° C. The samples were analyzed under nitrogen flow (to eliminate oxidative and pyrrolitic effects) at a heating rate of 10° C./min.
DSC analyses were executed as reported above also on the samples recovered after DVS tests, executed according to the DMSG principle. As shown below in FIG. 5, DSC profiles of SS-reboxetine succinate and fumarate salts were unchanged after equilibration at high humidity according to the DVS test method (maximum relative humidity of 90% at 25° C. and equilibration up to 0.005%/min or no more than 360 minutes).

[4] = listed as S,S-reboxetine mesylate

CCOc1ccccc1O[C@@H](c1ccccc1)[C@@H]1CNCCO1.O=C(O)/C=C/C(=O)O (single isomer, unassigned) [Fumarate salt, Reboxetine S,S Enantiomer Fumarate Salt]
Effects of moisture update: reversibility / retention of water uptake ([1]; Fumarate Salt): Reversible water | Effects of moisture update: reversibility / retention of water uptake ([1]; listed as fumarate salt, Fumarate Salt): reversible | Water uptake % ([1]; Relative Humidity 20%): 0.06% | Water uptake % ([1]; Relative Humidity 35%): 0.11% | Water uptake % ([1]; Relative Humidity 50%): 0.16% | Water uptake % ([1]; Relative Humidity 65%): 0.21% | Water uptake % ([1]; Relative Humidity 80%): 0.31% | Water uptake % ([1]; Relative Humidity 90%): 0.47% | Weight loss upon heating (TGA), in words [2]: negligible | DSC profile after equilibration at high humidity (DVS test method) [3]: unchanged

CCOc1ccccc1O[C@@H](c1ccccc1)[C@@H]1CNCCO1.O=C(O)CCC(=O)O (single isomer, unassigned) [Succinate salt, Reboxetine S,S Enantiomer Succinate Salt]
Effects of moisture update: reversibility / retention of water uptake ([1]; Succinate Salt): Reversible water | Effects of moisture update: reversibility / retention of water uptake ([1]; listed as succinate salt, Succinate Salt): reversible | Water uptake % ([1]; Relative Humidity 20%): 0.03% | Water uptake % ([1]; Relative Humidity 35%): 0.06% | Water uptake % ([1]; Relative Humidity 50%): 0.10% | Water uptake % ([1]; Relative Humidity 65%): 0.14% | Water uptake % ([1]; Relative Humidity 80%): 0.21% | Water uptake % ([1]; Relative Humidity 90%): 0.29% | Weight loss upon heating (TGA), in words [2]: negligible | DSC profile after equilibration at high humidity (DVS test method) [3]: unchanged

CCOc1ccccc1O[C@H](c1ccccc1)[C@H]1CNCCO1.CS(=O)(=O)O [Mesylate salt, S,S-reboxetine mesylate]
Effects of moisture update: reversibility / retention of water uptake [1]: Retention of water | Effects of moisture update: reversibility / retention of water uptake [1, 4]: only partially eliminated | Water uptake retained after re-equilibration ([1]; DVS, after re-equilibration): about 4% | Amount of water adsorbed (uptake) in hygroscopicity test ([1]; DVS, at 90% RH printed for mesylate salt): up to 9% | Desorption Cycle Water content % (percent change in mass) ([1]; Relative Humidity 0%): 4.3% | Sorption Cycle Water content % (percent change in mass) ([1]; Relative Humidity 0%): 0.0% | Desorption Cycle Water content % (percent change in mass) ([1]; Relative Humidity 20%): 4.5% | Sorption Cycle Water content % (percent change in mass) ([1]; Relative Humidity 20%): 0.5% | Desorption Cycle Water content % (percent change in mass) ([1]; Relative Humidity 35%): 4.6% | Sorption Cycle Water content % (percent change in mass) ([1]; Relative Humidity 35%): 0.6% | Desorption Cycle Water content % (percent change in mass) ([1]; Relative Humidity 50%): 4.6% | Sorption Cycle Water content % (percent change in mass) ([1]; Relative Humidity 50%): 0.7% | Desorption Cycle Water content % (percent change in mass) ([1]; Relative Humidity 65%): 4.6% | Sorption Cycle Water content % (percent change in mass) ([1]; Relative Humidity 65%): 0.9% | Desorption Cycle Water content % (percent change in mass) ([1]; Relative Humidity 80%): 4.7% | Sorption Cycle Water content % (percent change in mass) ([1]; Relative Humidity 80%): 4.5% | Desorption Cycle Water content % (percent change in mass) ([1]; Relative Humidity 90%): 8.7% | Sorption Cycle Water content % (percent change in mass) ([1]; Relative Humidity 90%): 8.7% | Effects of moisture update: change in crystalline form ([1]; after water uptake in DVS test): Irreversible change | Weight loss upon heating (volatile content, TGA) [2]: about 2% | DSC profile after equilibration at high humidity (DVS test method) [3]: complete destructuration | Modification of solid structure after DVS test (observed by DSC) [3, 4]: solid state modification was observed | Modification of solid structure after DVS test (observed by DSC) ([3]; listed as mesylate salt): loss of crystallinity
